Measured values taken from patent US10617735B2, “Methods and compositions for preserving retinal ganglion cells” (Massachusetts Eye and Ear Infirmary, priority 2010, dated 2020).
Where a SMILES comes first, the peptide text is derived from it. The star is where a group is joined. Cbz = O=C(OCc1ccccc1)*; CH2F = FC*

Key:
Format in all cases: in vivo, mouse
[1] = test system: retinal ganglion cells (RGCs); test: Transmission electron microscopy (TEM) quantification of apoptotic and necrotic RGC death after ON injury
Procedure: In addition, the morphology of RGC death was assessed by transmission electron microscopy (TEM) as previously described (Trichonas et al., (2010) PROC NATL ACAD SCI USA)). Specifically, the eyes were enucleated, and the posterior segments were fixed in 2.5% glutaraldehyde and 2% paraformaldehyde in 0.1 M cacodylate buffer with 0.08 M CaCl2 at 4° C. The eyes were post-fixed for 1.5 hours in 2% aqueous OsO4, dehydrated in ethanol and water, and embedded in EPON. Ultrathin sections were cut from blocks and stained with saturated, aqueous uranyl acetate and Sato's lead stain. […] More than 50 RGCs per eye were photographed and subjected to quantification of cell death in a masked fashion. RGCs showing cellular shrinkage and nuclear condensation were defined as apoptotic cells, and RGCs associated with cellular and organelle swelling and discontinuities in nuclear and plasma membrane were defined as necrotic cells. Electron dense granular materials were labeled simply as end-stage unclassified cell death. Autophagosome was defined as a double- or multi-membraned structure containing cytoplasmic material and/or organelles, and autolysosome was defined as cytoplasmic vesicle containing electron dense degraded material, as previously described (Eskelinen, 2008).
RGC death was categorized into apoptosis, necrosis and unclassified end-stage of death, as previously described (Trichonas et al., (2010) PROC NATL ACAD SCI USA). […] Co-administration of ZVAD and Nec-1 led to a substantial decrease of both apoptotic and necrotic RGC death (% apoptotic cells: 4.2±5.1%, necrotic cells: 9.8±6.6%, unclassified: 1.8±1.8%, P<0.01; FIGS. 4C and 4D).
To identify the RGC death mode seen after ON injury transmission electron microscopy (TEM) studies was performed as previously described. RGCs that were unable to be classified were defined as end-stage cell death/unclassified. […] RGCs contained tubular sacs of rough endoplasmic reticulum (rER) surrounded by large numbers of ribosomes (Nissl bodies). Mitochondria were identified as round or oval double-membrane structures with characteristic cristae. In addition, the cytoplasm contained elements of Golgi apparatus (GA), free ribosomes and microtubules sectioned at various angles. A large round nucleus, surrounded by a double-layered nuclear membrane, contained homogeneously dispersed karyoplasm (chromatin material) and one or two electron dense nucleoli (FIG. 8A) (Saggu et al., (2010) BMC NEUROSCI 11:97)). After ON injury, RGC death through apoptosis was predominant.

[2] = test system: retinal ganglion cells (RGCs); test: TUNEL staining after ON injury
Source text: Two mouse models of RGC death were utilized: optic nerve (ON) injury and N-methyl-D-aspartate (NMDA) retinal excitotoxicity. ON injury leads to RGC death as a result of primary damage to the axons, with its ensuing disruption of retrograde axonal transport (Libby et al., (2005) PLOS GENET 1:17-26) and is used as an RGC death model. In the ON injury model, mice were anesthetized and subjected to severe crush injury at 1-2 mm distance from the eyeball for 15 seconds using cross-action forceps taking special care not to interfere with the blood supply (Levkovitch-Verbin, (2004) EYE 18:1066-1074). […] Soon after injury, each group received an intravitreal injection (2 μl) with the respective compounds. In the NMDA retinal excitotoxicity model, NMDA (2 μl of a 0.1M stock; Sigma-Aldrich) was injected intravitreously in combination with ZVAD, Nec-1, or ZVAD plus Nec-1 and mice were separated into the aforementioned 4 groups. The dose of these compounds was selected based on previous studies (Karl et al., (2008) PROC NATL ACAD SCI USA 105:19508-19513; Knoferle et al., (2010) PROC NATL ACAD SCI USA 107:6064-6069; Nakazawa et al., (2006) J NEUROSCI 26:12633-12641; Rosenbaum et al., (2010) J NEUROSCI RES 88:1569-1576).
Intravitreal injections were performed as follows. Briefly, the tip of a 33 gauge needle (Hamilton, Reno, Nev.) was carefully inserted through the sclera into the intravitreal space to reduce intraocular pressure. Then, the needle was extracted, loaded with compounds and tangentially reinserted through the sclera into the intravitreal space, inducing a self-sealing wound tunnel. After injection, the absence of choroidal bleeding was confirmed. At specified times after injury, mice were sacrificed with an overdose of sodium pentobarbital, and eyes were enucleated.

[3] = test system: retinal ganglion cells (RGCs); test: Propidium iodide (PI) staining of necrotic cells in GCL after ON injury; conditions: one day after ON injury, wild-type mice
Source text: To investigate further the underlying mechanism of why Z-VAD fails to prevent RGC death after ON injury, propidium iodide (PI) was used to detect necrotic cells in GCL (Unal Cevik et al., (2010)). At one day after ON injury, Z-VAD administration increased the number of PI positive cells compared with vehicle (FIGS. 4A and 4B).

[4] = test system: retinal ganglion cells (RGCs); test: IPL thickness and GCL with IPL thickness after ON injury (immunohistochemistry, SD-OCT); conditions: RIP3−/− mice; one week after ON injury
Procedure: An anti-TNF-α neutralizing antibody (0.1 mg/ml) or a control antibody was injected into the vitreous of mice that underwent ON injury. One week following injection, the number of RGCs were measured. In addition, inner plexiform layer (IPL) thickness (a location of RGC axons) was also assessed. Specifically, eyes were enucleated and RGC loss was quantified from histological sections of mouse retina. Only transverse sections involving the optic disc were used for analysis and the fields corresponding to approximately 400 μm of both sides of retina extending from the ON head (2 points/section×3 sections per eye, n=6) were examined with an optical microscope (×40 objectives). IPL thickness was measured with OpenLab software (Open Lab, Florence, Italy) (2 points/section×3 sections per eye, n=6). The ratio of IPL thickness was calculated as a percentage of IPL thickness in the normal mouse eyes (n=6).
Inner plexiform layer (IPL) thickness and ganglion cell layer (GCL) with IPL thickness (location of RGC cell bodies and axons) were measured using immunohistochemistry and a Spectral Domain Optical Coherence Tomography (SD-OCT) system (Bioptigen Inc., Durham, N.C.). […] The thickness of GCL+IPL was assessed at 500 μm, 400 μm, 300 μm distance from the ON head (nasally and temporally) as well as at 200 μm, 400 μm above and below the ON head.

[5] = one day after ON injury, mean±SD

## COC(=O)CC(NC(=O)C(C)NC(=O)C(NC(=O)OCc1ccccc1)C(C)C)C(=O)CF (stereo not drawn) [Z-VAD, Benzyloxycarbonyl-Val-Ala-Asp(OMe)-fluoromethylketone] (Cbz-Val-Ala-Asp(OMe)-CH2F; configuration not given here)
[1]; after ON injury
  mode of RGC death, apoptotic versus necrotic (TEM): blocked apoptotic cell death and sensitized cells to necrotic cell death
[1]; [5]
  apoptotic cells (RGC death, TEM): 5.6±3.4%
  necrotic cells (RGC death, TEM): 30.7±4.9%
  unclassified end-stage of death (TEM): 3.4±2.3%
[2]; RIP3−/− mice, one day after ON injury
  TUNEL positive cells: marked decrease in TUNEL positive cells
[2]; wild-type mice, day one after ON injury, intravitreal Z-VAD (300 uM) and/or Nec-1 (400 uM)
  TUNEL positive cells (apoptotic RGCs): failed to rescue RGCs
[3]
  number of PI positive cells: increased
[4]
  IPL thickness: preservation of IPL thickness
